Measurements published in patent US5919782A, “Heterocyclic compounds having antidiabetic, hypolipidaemic, antihypertensive properties, process for their preparation and pharmaceutical compositions containing them” (Dr. Reddy's Research Foundation, priority 1996, dated 1999).
Structures can show the parent of a compound that is named as a salt.

What was measured:
[1] = system: rats; assay: Subacute toxicity in rats; format: in vivo; details: 100 mg/kg orally
Procedure: Groups of 20 rats, consisting of 10 males and 10 females, weighing between 120 to 140 gm, received orally 100 mg/kg of compound of Example 6 for 28 days. The behavioral changes and body weights were monitored daily. The rats were sacrificed on the 29th day and blood was collected for hematological and biochemical estimations. All vital organs were examined both macroscopically and microscopically.

[2] = system: C57 BL/KsJ-db/db mice; assay: blood sugar and triglycerides lowering activity in db/db mice; format: in vivo, mouse (male C57 BL/KsJ-db/db); details: for Reduction in Blood Glucose Level / Triglyceride Lowering: oral gavage daily for 6 days, db/db mice
Source text: Mutation in colonies of laboratory animals and different sensitivities to dietary regimens have made the development of animal models with non-insulin dependent diabetes associated with obesity and insulin resistance possible. Genetic models such as db/db and ob/ob (See Diabetes, (1982) 31(1): 1-6) in mice and fa/fa and zucker rats have been developed by the various laboratories for understanding the pathophysiology of disease and testing the efficacy of new antidiabetic compounds (Diabetes, (1983) 32: 830-838; Annu. Rep. Sankyo Res. Lab. (1994). 46: 1-57). The homozygous animals, C57 BL/KsJ-db/db mice developed by Jackson Laboratory, US, are obese, hyperglycemic, hyperinsulinemic and insulin resistant (J. Clin. Invest., (1990) 85: 962-967), whereas heterozygous are lean and normoglycemic. In db/db model, mice progressively develop insulinopenia with age, a feature commonly observed in late stages of human type II diabetes when blood sugar levels are insufficiently controlled. The state of pancreas and its course vary according to the models. Since this model resembles that of type II diabetes mellitus, the compounds of the present invention were tested for blood sugar and triglycerides lowering activities.
Male C57 BL/KsJ-db/db mice of 8 to 14 weeks age, having body weight range of 35 to 60 grams, procured from the Jackson Laboraotory, USA, were used in the experiment. The mice were provided with standard feed (National Institute of Nutrition, Hyderabad, India) and acidified water, ad libitum. The animals having more than 300 mg/dl blood sugar were used for testing. The number of animals in each group was 4.
The random blood sugar and triglyceride levels were measured by collecting blood (100 μl) through orbital sinus, using heparinised capillary in tubes containing EDTA which was centrifuged to obtain plasma. The plasma glucose and triglyceride levels were measured spectrometrically, by glucose oxidase and glycerol-3-PO4 oxidase/peroxidase enzyme (Dr. Reddy's Lab. Diagnostic Division Kits, Hyderabad, India) methods respectively. On 6th day the blood samples were collected one hour after administration of test compounds/vehicle for assessing the biological activity.
Test compounds were suspended on 0.25% carboxymethyl cellulose or water (for water soluble compounds) and administered to test group at a dose of 10 to 30 mg/kg through oral gavage daily for 6 days. The control group received vehicle (dose 10 ml/kg).
The blood sugar and triglycerides lowering activities of the test compound was calculated according to the formula: [formula] ZC=Zero day control group value DC=Zero day treated group value
TC=Control group value on test day
DT=Treated group value on the test day

Row | Structure (SMILES) | Reduction in Blood Glucose Level ([2]; 10 mg/kg) | Triglyceride Lowering ([2]; 10 mg/kg) | Reduction in Blood Glucose Level ([2]; 30 mg/kg) | Triglyceride Lowering ([2]; 30 mg/kg) | further results
1 | O=C1NC(=O)C(=Cc2ccc(OC[C@@H]3CCCN3c3ccccn3)cc2)S1 [Example 6, 5-[4-[[1-(Pyridin-2-yl)-(2S)-pyrrolidin-2-yl]methoxy]phenylmethylene]thiazolidine-2,4-dione, maleic acid salt] | 49% | 71% |  |  | gross macroscopic and microscopic changes of heart, lungs, bone marrow, kidneys and spleen ([1]; 28 days): No gross macroscopic and microscopic changes of heart, lungs, bone marrow, kidneys and spleen were observed; mortality ([1]; 28 days): did not produce any mortality; Organ Weight, Heart ([1]; 28 days, Control 0.59 ± 0.09): 0.61 ± 0.08 g; RBC ([1]; 28 days, Control 7.33 ± 0.75): 7.08 ± 0.93 × 10^6 /mm^3; WBC ([1]; 28 days, Control 8.08 ± 2.01): 9.19 ± 2.11 × 10^3 /mm^3; Hemoglobin ([1]; 28 days, Control 15.18 ± 0.69): 14.88 ± 0.46 gm/dl; PVC ([1]; 28 days, Control 52.06 ± 2.58): 52.21 ± 2.67%; hematological and biochemical parameters, deviations from control ([1]; end of 28 days treatment): no significant deviations from the control were observed in hematological and biochemical parameters
2 | O=C1NC(=O)C(=Cc2ccc(OC[C@@H]3CCCN3c3ccccn3)cc2)S1 [Example 7, 5-[4-[[1-(Pyridin-2-yl)-(2S)-pyrrolidin-2-yl]methoxy]phenylmethylene]thiazolidine-2,4-dione, hydrochloride salt] |  |  | 67% | 43% | 
3 | O=C1NC(=O)C(Cc2ccc(OC[C@@H]3CCCN3c3ccc4ccccc4n3)cc2)S1 (stereo partly drawn) [Example 12, 5-[4-[[1-(Quinolin-2-yl)-(2S)-pyrrolidin-2-yl]methoxy]phenylmethyl]thiazolidine-2,4-dione] |  |  | 27% | 49% | 
4 | Cc1cc(N2CCC[C@H]2COc2ccc(CC3SC(=O)NC3=O)cc2)nc2ccccc12 (stereo partly drawn) [Example 20, 5-[4-[[1-(Lepidin-2-yl)-(2S)-pyrrolidin-2-yl]methoxy]phenylmethyl]thiazolidine-2,4-dione, sodium salt] |  |  | 30% | 62% | 
5 | O=C1NC(=O)C(=Cc2ccc(O[C@H]3CCN(c4ccccn4)C3)cc2)S1 [Example 23, 5-[4-[1-(Pyridin-2-yl)-(3S)-pyrrolidin-3-yloxy]phenylmethylene]thiazolidine-2,4-dione, hydrochloride salt] | 46% | 10% |  |  | 
6 | O=C1NC(=O)C(Cc2ccc(OCC3CN(c4ccccn4)CCO3)cc2)S1 (stereo not drawn) [Example 27, 5-[4-[[4-(Pyridin-2-yl)morpholin-2yl]methoxy]phenylmethyl]thiazolidine-2,4-dione, sodium salt] | 56% | 29% |  |  | 
7 | Cc1c(C)c2c(c(C)c1O)CCC(C)(COc1ccc(CC3SC(=O)NC3=O)cc1)O2 (stereo not drawn) [Troglitazone, reference compound] |  |  |  |  | reduction in random blood sugar level ([2]; 100 mg/kg daily dose, standard drug, on 6th day): 28%
